Here are results for 14 compounds from US8772277B2, “Nitrogen-containing heterocyclic compound” (Takeda Pharmaceutical Company Limited, priority 2011, dated 2014).

Counter-ions that a name gives are not always drawn.

Experiment [1] deals with T1, fusion protein containing GAL4-DNA-binding domain and ERR full-length (Homo sapiens, UniProt P11474).
T1 construct: expressed in transfected cells; host or cells: 293T cells
T1 sequence (P11474 1-423): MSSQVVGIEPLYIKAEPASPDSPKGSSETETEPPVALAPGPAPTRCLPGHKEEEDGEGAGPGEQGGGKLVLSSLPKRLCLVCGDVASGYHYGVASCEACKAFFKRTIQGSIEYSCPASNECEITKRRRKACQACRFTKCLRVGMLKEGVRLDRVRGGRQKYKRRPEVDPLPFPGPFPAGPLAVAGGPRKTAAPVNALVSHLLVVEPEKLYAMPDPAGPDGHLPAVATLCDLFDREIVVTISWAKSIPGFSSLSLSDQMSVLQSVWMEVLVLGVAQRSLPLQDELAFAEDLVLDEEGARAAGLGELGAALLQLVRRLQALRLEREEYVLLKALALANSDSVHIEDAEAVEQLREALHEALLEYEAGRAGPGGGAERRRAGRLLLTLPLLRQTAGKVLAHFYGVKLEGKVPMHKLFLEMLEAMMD
The experiment can be described thus: Reporter assay system using 293T cells (GAL4-ERR luciferase, inverse agonist activity). Type of experiment: cell-based. Conditions: compound final concentration 3 μM, no compound = 0%, 10 μM XCT-790 = 100%; for inhibition at 3 µM: HEK-293T, read-out: inhibition rate (%) at 3 μM. How it is done:
Experimental Example 2 Compound Evaluation in Reporter Assay System Using 293T Cells
293T cells derived from human kidney were seeded in a 150 cm^2 flask by 6,000,000 cells, and cultured in a medium (DMEM medium containing 10% inactivated Fetal Bovine Serum sterile filtered (FBS), […] Gentamicin, 10 mM HEPES buffer (pH 7.4)) at 37° C. in the presence of 5% CO2 for 1 day.
Then, vector DNA having a gene encoding a fusion protein, containing GAL4-DNA-binding domain and ERR full-length and a vector DNA wherein luciferase gene is fused at the downstream of GAL4-binding-sequence were cotransfected by a lipofection method, and the cells were cultured at 37° C. in the presence of 5% CO2 for 1 day. The cells were recovered, sown in a 384 well plate by 15,000 cells, and cultured at 37° C. in the presence of 5% CO2 for 3 hrs. Furthermore, 50 μM N-[5-(trifluoromethyl)-1,3,4-thiadiazol-2-yl]-2-cyano-3-[3-methoxy-4-[2,4-di(trifluoromethyl)benzyloxy]phenyl]propenamide (XCT-790) (final concentration 10 μM) or 15 μM compound (final concentration 3 μM) was added, and the cells were cultured at 37° C. in the presence of 5% CO2 for 1 day. The luciferase activity was measured by using multiplate reader Envision (Perkin Elmer Inc.). The inverse agonist activity of the compound was calculated in percentage with the luciferase activity inhibited by no addition of compound as 0%, and with addition of final concentration 10 μM of XCT-790 as 100%.
A general note: In a reporter assay the amount or activity of a reporter protein is the signal.

The target of experiment [2] is T2, GST-ERR-α ligand-binding domain (Homo sapiens, UniProt P11474).
T2 sequence (P11474 193-421 limits assumed): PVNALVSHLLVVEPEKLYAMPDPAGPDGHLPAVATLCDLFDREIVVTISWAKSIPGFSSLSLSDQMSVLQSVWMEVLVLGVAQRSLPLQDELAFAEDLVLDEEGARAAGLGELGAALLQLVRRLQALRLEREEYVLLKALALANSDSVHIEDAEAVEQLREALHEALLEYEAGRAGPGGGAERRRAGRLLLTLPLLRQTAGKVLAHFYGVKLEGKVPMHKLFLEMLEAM
The experiment is described as follows: HTRF assay system using ERR-α ligand-binding domain (inverse agonist activity, biotinylated SRC-1 (676-700) peptide). The format is biochemical. Conditions: compound final concentration 30 μM, 665/620 ratio, no compound = 0%, 10 μM XCT-790 = 100%; for inhibition at 30 µM: read-out: inhibition rate (%) at 30 μM. How it is done:
Experimental Example 1 Compound Evaluation in HTRF Assay System Using ERR-α Ligand-Binding Domain
An assay buffer (25 mM HEPES, 100 mM NaCl, 1 mM DTT, 0.1% BSA) containing 5 nM GST-ERR-α ligand-binding domain (final concentration 1.25 nM) was added to a 384 well plate, then 40 μM N-[5-(trifluoromethyl)-1,3,4-thiadiazol-2-yl]-2-cyano-3-[3-methoxy-4-[2,4-di(trifluoromethyl)benzyloxy]phenyl]propenamide (XCT-790) (final concentration 10 μM), or 120 μM compound (final concentration 30 μM) was added. Furthermore, an assay buffer containing XL665 conjugated Streptavidin, Eu^3+ criptate conjugated GST antibody and 200 nM biotinylated SRC-1 (676-700) (final concentration 100 nM) was added, and the mixture was reacted at room temperature for 2 hr. Using Multiplate reader Envision (Perkin Elmer Inc.), after excitation at 320 nm, fluorescence values at 620 nm and 665 nm were measured. The inverse agonist activity of the compound was calculated in percentage with the 665/620 ratio value inhibited by no addition of compound as 0%, and with addition of final concentration 10 μM of XCT-790 as 100%.
On the technique in general: Time-resolved FRET reads energy transfer from a long-lived donor to a nearby acceptor.

A further experiment relates to MDA-MB-231-luc cells. The experiment is described as follows: Antitumor test using MDA-MB-231-luc cells (subcutaneous transplant). The format is in vivo, Balb/c nu/nu mice. The settings on record: change in tumor volume, vehicle group = 100%. The procedure:
Experimental Example 3 Antitumor Test using MDA-MB-231-luc Cells
6-Week-old Balb/c nu/nu mice were transplanted subcutaneously with 5×10^6 cells/100 μL, and the mice were grouped according to the body weight and tumor volume after 1 to 2 weeks. Vehicle (0.5% MC) or a compound was administered orally to mice (6 mice per group). The administration was twice per day and performed continuously during the dosing period. Setting the change in tumor volume of the vehicle-treated group as 100%, the change rate in tumor volume of the compound-treated group (□/C %) was calculated.

Setting [3] is: 50 mg/kg orally twice per day, dosing period 14 days.

As to `C#CCNC1=NC(=O)S/C1=C\C1CCN(Cc2ccc(C(F)(F)F)cc2C(F)(F)F)CC1` [Example 7, (5Z)-5-({1-[2,4-bis(trifluoromethyl)benzyl]piperidin-4-yl}methylidene)-4-(prop-2-yn-1-ylamino)-1,3-thiazol-2(5H)-one], the “inhibition rate (%) at 3 μM” value in experiment [1] was 87%. The “inhibition rate (%) at 30 μM” value in experiment [2] was 100%. In addition, the “T/C (%)” value in the experiment on MDA-MB-231-luc cells (setting [3]) is 24%.
As for `C#CCNC1=NC(=O)S/C1=C\C1CCN(Cc2ccc(C(F)(F)F)cc2C(F)(F)F)CC1` [Example 10, (5Z)-5-({1-[2,4-bis(trifluoromethyl)benzyl]piperidin-4-yl}methylidene)-4-(prop-2-yn-1-ylamino)-1,3-thiazol-2(5H)-one fumarate], in experiment [1] (fumarate), the “inhibition rate (%) at 3 μM” value was 93%. The “inhibition rate (%) at 30 μM” value in experiment [2] (fumarate) came out at 102%. In addition, in the experiment with MDA-MB-231-luc cells (60 mg/kg orally twice per day, dosing period 15 days), the “T/C (%)” value turned out to be 15%.
As a reminder, the inhibition is the relative decrease from the control value, in per cent. On to `O=C1N=C(NCCOCCO)/C(=C/C2CCN(Cc3ccc(C(F)(F)F)cc3C(F)(F)F)CC2)S1` [Example 13, (5Z)-5-({1-[2,4-bis(trifluoromethyl)benzyl]piperidin-4-yl}methylidene)-4-{[2-(2-hydroxyethoxy)ethyl]amino}-1,3-thiazol-2(5H)-one ditoluenesulfonate], for which, in experiment [1], the inhibition at 3 µM turned out to be 89%. In experiment [2], the inhibition at 30 µM was 105%. In the experiment with MDA-MB-231-luc cells (100 mg/kg orally twice per day, dosing period 15 days), the “T/C (%)” value came out at 20%.
On to `CC(C)(O)CNC1=NC(=O)S/C1=C\C1CCN(Cc2ccc(C(F)(F)F)cc2C(F)(F)F)CC1` [Example 17, (5Z)-5-({1-[2,4-bis(trifluoromethyl)benzyl]piperidin-4-yl}methylidene)-4-[(2-hydroxy-2-methylpropyl)amino]-1,3-thiazol-2(5H)-one fumarate], for which, in experiment [1], the inhibition at 3 µM turned out to be 97%. Moreover, in experiment [2], the inhibition at 30 µM came to 106%. Moreover, in the experiment on MDA-MB-231-luc cells (50 mg/kg orally twice per day, dosing period 15 days), the “T/C (%)” value is listed as 40%.
As to `O=C1N=C(NCC2CC2)/C(=C/C2CCN(Cc3ccc(C(F)(F)F)cc3C(F)(F)F)CC2)S1` [Example 61, (5Z)-5-({1-[2,4-bis(trifluoromethyl)benzyl]piperidin-4-yl}methylidene)-4-[(cyclopropylmethyl)amino]-1,3-thiazol-2(5H)-one fumarate], the inhibition at 3 µM in experiment [1] came to 90%. Further, in experiment [2], the inhibition at 30 µM turned out to be 95%.
The like results for `C#CCNC1=NC(=O)S/C1=C\C1CCN(Cc2ccc(C(F)(F)F)cc2C(F)(F)F)C1` (centres unmarked) [Example 69, (5Z)-5-({1-[2,4-bis(trifluoromethyl)benzyl]pyrrolidin-3-yl}methylidene)-4-(prop-2-yn-1-ylamino)-1,3-thiazol-2(5H)-one maleate] were, in that order, 87% and 67%.
The like results for `CC(C)(CO)CNC1=NC(=O)S/C1=C\C1CCN(Cc2ccc(C(F)(F)F)cc2C(F)(F)F)CC1` [Example 77, (5Z)-5-({1-[2,4-bis(trifluoromethyl)benzyl]piperidin-4-yl}methylidene)-4-[(3-hydroxy-2,2-dimethylpropyl)amino]-1,3-thiazol-2(5H)-one] were, in that order, 82% and 109%.
Regarding `CC(C)(CO)CNC1=NC(=O)S/C1=C\C1CCN(Cc2ccc(C(F)(F)F)cc2C(F)(F)F)CC1` [Example 78, (5Z)-5-({1-[2,4-bis(trifluoromethyl)benzyl]piperidin-4-yl}methylidene)-4-[(3-hydroxy-2,2-dimethylpropyl)amino]-1,3-thiazol-2(5H)-one fumarate], the “T/C (%)” value in the experiment with MDA-MB-231-luc cells (setting [3]) was 11%.
Regarding `CNC1=NC(=O)N(C)/C1=C\C1CCN(Cc2ccc(C(F)(F)F)cc2C(F)(F)F)CC1` [Example 80, (5Z)-5-({1-[2,4-bis(trifluoromethyl)benzyl]piperidin-4-yl}methylidene)-1-methyl-4-(methylamino)-1,5-dihydro-2H-imidazol-2-one], the inhibition at 3 µM in experiment [1] was determined as 86%. For the same compound, in experiment [2], the inhibition at 30 µM came out at 105%.
For the compound `CN(C)C(=O)CNC1=NC(=O)S/C1=C\C1CCN(Cc2ccc(C(F)(F)F)cc2C(F)(F)F)CC1` [Example 108, N^2-[(5Z)-5-({1-[2,4-bis(trifluoromethyl)benzyl]piperidin-4-yl}methylidene)-2-oxo-2,5-dihydro-1,3-thiazol-4-yl]-N,N-dimethylglycinamide], the inhibition at 3 µM in experiment [1] came to 81%. In addition, the inhibition at 30 µM in experiment [2] turned out to be 89%. The “T/C (%)” value in the experiment with MDA-MB-231-luc cells (setting [3]) came out at 45%.
For `CN(C)C(=O)[C@H](CO)NC1=NC(=O)S/C1=C\C1CCN(Cc2ccc(C(F)(F)F)cc2C(F)(F)F)CC1` [Example 132, N^2-[(5Z)-5-({1-[2,4-bis(trifluoromethyl)benzyl]piperidin-4-yl}methylidene)-2-oxo-2,5-dihydro-1,3-thiazol-4-yl]-N,N-dimethyl-L-serinamide], the inhibition at 3 µM in experiment [1] was found to be 78%. Moreover, in experiment [2], the inhibition at 30 µM is 102%.
The like results for `CN(C)C(=O)CCNC1=NC(=O)S/C1=C\C1CCN(Cc2ccc(C(F)(F)F)cc2C(F)(F)F)CC1` [Example 140, N^3-[(5Z)-5-({1-[2,4-bis(trifluoromethyl)benzyl]piperidin-4-yl}methylidene)-2-oxo-2,5-dihydro-1,3-thiazol-4-yl]-N,N-dimethyl-β-alaninamide] were, in that order, 90% and 100%.
For `CCNC1=NC(=O)S/C1=C\C1CCN(Cc2ccc(C(F)(F)F)cc2C(F)(F)F)CC1` [Example 199, (5Z)-5-({1-[2,4-bis(trifluoromethyl)benzyl]piperidin-4-yl}methylidene)-4-(ethylamino)-1,3-thiazol-2(5H)-one] the same measures were 84% and 101%.
Take `CCCNC1=NC(=O)S/C1=C\C1CCN(Cc2ccc(C(F)(F)F)cc2C(F)(F)F)CC1` [Example 200, (5Z)-5-({1-[2,4-bis(trifluoromethyl)benzyl]piperidin-4-yl}methylidene)-4-(propylamino)-1,3-thiazol-2(5H)-one]: the inhibition at 3 µM in experiment [1] turned out to be 88%. The inhibition at 30 µM in experiment [2] amounted to 101%.
